Laboratory results taken from patent US20260101892A1, “METHOD TO INHIBIT PROLIFERATION OF A PHYTOPATHOGEN ON PLANTS AND COMPOSITIONS USED FOR THIS PURPOSE” (CYSBIO APS, priority 2022, published 2026).
Read-outs that look alike come from different tables or passages of the source. Marks after values point to notes of the source that are not given here.

How the values were obtained:
E. coli [1] = settings: cited from earlier work; for Planktonic growth A600/min (×10^−3): LB medium, 30° C., 24 hours; for Planktonic growth Reduction (%): (compound − control) × 100 / control, negative = reduction; for biocidal effect: at the concentrations tested by Catto et al. (0.183-1830 μM)
E. coli [2] = settings: cited from earlier work; for Cell adhesion Reduction (%): (compound − control) × 100 / control, negative = reduction; for concentrations at which anti-biofilm efficacy is shown: Catto et al., table 1; for anti-biofilm activity (cell adhesion): at the concentrations tested by Catto et al. (0.183-1830 μM)
Alternaria alternata = assay: Post-harvest preservation of capsicums; assay type: in vivo; settings: capsicums sprayed twice, 10° C., followed 25 days, triplicate
Protocol: To investigate if zosteric acid and/or coumaric acid can protect fruit and vegetables against post-harvest infection with different fungi, zosteric and coumaric acids fungicidal effect was tested in capsicums and lemons infected with Alternaria alternata and Penicillium digitatum, respectively. The tests were performed by acquiring the relevant fruit and vegetables from the local supermarket. Both fruit and vegetables were bought as organic produce to ensure a minimum of pesticides had already been applied. […] Each application treatment was performed in triplicate on three separate pieces of produce. After treatment, the produce was allowed to dry in a sterile laminar flow cabinet followed by a second round of application and drying. The produce was then inoculated with the relevant fungal spores using a grafting stick. […] The inoculated produce was subsequently placed in […] plastic bags to prevent contamination with other organisms and to prevent the produce from drying out due to air circulation in the incubator. The wrapped capsicums and lemons were placed at 10° C. and the fungal growth followed by measuring the diameter of the growth from the point of inoculation for 25 days.

[3] = system: European grapes (Vitis vinifera); assay: Phytotoxicity evaluation in the grapevine downy mildew trial; settings: 5% treatment, Example 9 trial

SMILES | Planktonic growth A600/min (×10^−3) (E. coli [1]; 0.183 μM) | Planktonic growth Reduction (%) (E. coli [1]; 0.183 μM) | Planktonic growth A600/min (×10^−3) (E. coli [1]; 1.83 μM) | Planktonic growth Reduction (%) (E. coli [1]; 1.83 μM) | Planktonic growth A600/min (×10^−3) (E. coli [1]; 18.3 μM) | Planktonic growth Reduction (%) (E. coli [1]; 18.3 μM) | Planktonic growth A600/min (×10^−3) (E. coli [1]; 183 μM) | Planktonic growth Reduction (%) (E. coli [1]; 183 μM) | Planktonic growth A600/min (×10^−3) (E. coli [1]; 1830 μM) | Planktonic growth Reduction (%) (E. coli [1]; 1830 μM) | Cell adhesion Reduction (%) (E. coli [2]; 0.183 μM) | Cell adhesion N. adhered cells (×10^7) (E. coli [2]; 0.183 μM) | Cell adhesion Reduction (%) (E. coli [2]; 1.83 μM) | Cell adhesion N. adhered cells (×10^7) (E. coli [2]; 1.83 μM) | Cell adhesion Reduction (%) (E. coli [2]; 18.3 μM) | Cell adhesion N. adhered cells (×10^7) (E. coli [2]; 18.3 μM) | Cell adhesion Reduction (%) (E. coli [2]; 183 μM) | Cell adhesion N. adhered cells (×10^7) (E. coli [2]; 183 μM) | Cell adhesion Reduction (%) (E. coli [2]; 1830 μM) | Cell adhesion N. adhered cells (×10^7) (E. coli [2]; 1830 μM) | also measured
O=C(O)/C=C/c1ccccc1 [Trans-cinnamic acid, trans-cinnamic acid] | 1.24 ± 0.04^abcd A600/min (×10^−3) | −3.32% | 1.22 ± 0.01^abcdf A600/min (×10^−3) | −4.74% | 1.19 ± 0.04^bcdef A600/min (×10^−3) | −7.58% | 1.14 ± 0.05^def A600/min (×10^−3) | −11.37% | 0.83 ± 0.02^h A600/min (×10^−3) | −35.10% | −34.95% | 1.25 ± 0.43^cdef ×10^7 | −38.77% | 1.17 ± 0.17^cdf ×10^7 | −7.37% | 1.78 ± 0.10^bcef ×10^7 | −25.03% | 1.44 ± 0.15^bcdef ×10^7 | −31.11% | 1.32 ± 0.28^cdef ×10^7 | concentrations at which anti-biofilm efficacy is shown (E. coli [2]): > 0.183 µM
O=C(O)/C=C/c1ccc(OS(=O)(=O)O)cc1 [Trans zosteric acid, trans-zosteric acid] | 1.32 ± 0.06^a A600/min (×10^−3) | 2.86% | 1.31 ± 0.04^a A600/min (×10^−3) | 1.76% | 1.29 ± 0.04^a A600/min (×10^−3) | 0.11% | 1.30 ± 0.04^a A600/min (×10^−3) | 1.07% | 1.30 ± 0.04^a A600/min (×10^−3) | 1.21% | 44.59% | 2.77 ± 0.17^d ×10^7 | −19.76% | 1.54 ± 0.29^c ×10^7 | −19.34% | 1.55 ± 0.19^c ×10^7 | −27.67% | 1.39 ± 0.13^c ×10^7 | −70.56% | 0.56 ± 0.12^a ×10^7 | biocidal effect (E. coli [1]): no biocidal effect; concentrations at which anti-biofilm efficacy is shown (E. coli [2]): > 1.83 µM; anti-biofilm activity (cell adhesion) (E. coli [2]; listed as trans-isomer of zosteric acid): highly effective
O=C(O)/C=C\c1ccccc1 [Cis-cinnamic acid, cis-cinnamic acid] | 1.32 ± 0.04^ab A600/min (×10^−3) | 2.71% | 1.28 ± 0.07^ab A600/min (×10^−3) | −0.56% | 1.30 ± 0.03^ab A600/min (×10^−3) | 1.27% | 1.24 ± 0.05^a A600/min (×10^−3) | −3.17% | 0.88 ± 0.02^c A600/min (×10^−3) | −31.64% | 28.52% | 2.46 ± 0.17^b ×10^7 | 23.00% | 2.36 ± 0.26^b ×10^7 | −29.61% | 1.35 ± 0.28^b ×10^7 | 164.82% | 5.08 ± 0.53^c ×10^7 | 183.29% | 5.43 ± 0.76^c ×10^7 | anti-biofilm activity (cell adhesion) (E. coli [2]): promotes biofilm formation at all concentrations tested
O=C(O)/C=C/c1ccc(O)cc1 [coumaric acid] | – | – | – | – | – | – | – | – | – | – | – | – | – | – | – | – | – | – | – | – | time after inoculation until A. alternata growth was displayed (Alternaria alternata): 25 days; phytotoxicity [3]: 23.5%
O=C(O)/C=C\c1ccc(O)cc1 [Cis-coumaric acid, cis-coumaric acid] | 1.29 ± 0.07^a A600/min (×10^−3) | 0.30% | 1.27 ± 0.05^a A600/min (×10^−3) | −0.88% | 1.27 ± 0.04^a A600/min (×10^−3) | −1.26% | 1.28 ± 0.06^a A600/min (×10^−3) | −0.16% | 1.25 ± 0.02^a A600/min (×10^−3) | −2.25% | −27.34% | 1.39 ± 0.15^abc ×10^7 | −14.39% | 1.64 ± 0.11^bc ×10^7 | −4.30% | 1.83 ± 0.14^bc ×10^7 | −15.26% | 1.62 ± 0.19^bc ×10^7 | 184.36% | 5.45 ± 1.00^e ×10^7 | biocidal effect (E. coli [1]): no biocidal activity; anti-biofilm activity (cell adhesion) (E. coli [2]): strongly reduced anti-biofilm activity
O=C(O)/C=C/c1ccc(O)cc1 [Trans-coumaric acid, trans-coumaric acid] | 1.31 ± 0.03ab A600/min (×10^−3) | 2.06% | 1.26 ± 0.04abc A600/min (×10^−3) | −1.72% | 1.23 ± 0.02abc A600/min (×10^−3) | −3.99% | 1.23 ± 0.06abc A600/min (×10^−3) | −3.87% | 0.97 ± 0.04e A600/min (×10^−3) | −24.17% | 19.37% | 2.29 ± 0.16b ×10^7 | −46.05% | 1.03 ± 0.14ce ×10^7 | −25.80% | 1.42 ± 0.24de ×10^7 | −22.36% | 1.49 ± 0.14de ×10^7 | −36.38% | 1.22 ± 0.27cde ×10^7 | biocidal effect (E. coli [1]): displays both biocidal and antibiofilm effect; anti-biofilm activity (cell adhesion) (E. coli [2]): displays both biocidal and antibiofilm effect
O=C(O)/C=C\c1ccc(OS(=O)(=O)O)cc1 [Cis zosteric acid, cis-zosteric acid] | 1.31 ± 0.13^a A600/min (×10^−3) | 2.28% | 1.31 ± 0.01^a A600/min (×10^−3) | 1.66% | 1.31 ± 0.03^a A600/min (×10^−3) | 2.24% | 1.24 ± 0.03^a A600/min (×10^−3) | −3.39% | 1.22 ± 0.03^a A600/min (×10^−3) | −4.98% | 98.02% | 3.79 ± 0.61^c ×10^7 | 92.49% | 3.69 ± 0.41^c ×10^7 | 84.50% | 3.54 ± 0.20^c ×10^7 | 9.90% | 2.11 ± 0.14^bd ×10^7 | 124.16% | 4.30 ± 1.01^c ×10^7 | biocidal effect (E. coli [1]): no biocidal nor anti-biofilm activity; anti-biofilm activity (cell adhesion) (E. coli [2]): no biocidal nor anti-biofilm activity; anti-biofilm activity (cell adhesion) (E. coli [2]; listed as cis-isomer of zosteric acid): no activity
